Values of other authors in US20200222451A1, “Composition” (Optibiotix Limited, priority 2017, published 2020).

Details: compared to placebo

## chromium picolinate
P<0.0001
  fat cravings: reduces
  food intake: reduces
P<0.05
  hunger levels: reduces
P<0.08
  body weight: decrease
